# Assays:
# AHR [1] = biological target: T1, AHR (Homo sapiens, UniProt P35869); test: DRE-Luciferase Reporter Assay, HepG2 (agonist); type: cell-based; settings: HepG2, Table 2; read-out: DRE-Luc HepG2 - Agonist: Average EC50
# T1 construct: endogenous in cells; host or cells: HepG2 (human), transfected with a DRE-luciferase reporter only
# T1 sequence (P35869 11-848): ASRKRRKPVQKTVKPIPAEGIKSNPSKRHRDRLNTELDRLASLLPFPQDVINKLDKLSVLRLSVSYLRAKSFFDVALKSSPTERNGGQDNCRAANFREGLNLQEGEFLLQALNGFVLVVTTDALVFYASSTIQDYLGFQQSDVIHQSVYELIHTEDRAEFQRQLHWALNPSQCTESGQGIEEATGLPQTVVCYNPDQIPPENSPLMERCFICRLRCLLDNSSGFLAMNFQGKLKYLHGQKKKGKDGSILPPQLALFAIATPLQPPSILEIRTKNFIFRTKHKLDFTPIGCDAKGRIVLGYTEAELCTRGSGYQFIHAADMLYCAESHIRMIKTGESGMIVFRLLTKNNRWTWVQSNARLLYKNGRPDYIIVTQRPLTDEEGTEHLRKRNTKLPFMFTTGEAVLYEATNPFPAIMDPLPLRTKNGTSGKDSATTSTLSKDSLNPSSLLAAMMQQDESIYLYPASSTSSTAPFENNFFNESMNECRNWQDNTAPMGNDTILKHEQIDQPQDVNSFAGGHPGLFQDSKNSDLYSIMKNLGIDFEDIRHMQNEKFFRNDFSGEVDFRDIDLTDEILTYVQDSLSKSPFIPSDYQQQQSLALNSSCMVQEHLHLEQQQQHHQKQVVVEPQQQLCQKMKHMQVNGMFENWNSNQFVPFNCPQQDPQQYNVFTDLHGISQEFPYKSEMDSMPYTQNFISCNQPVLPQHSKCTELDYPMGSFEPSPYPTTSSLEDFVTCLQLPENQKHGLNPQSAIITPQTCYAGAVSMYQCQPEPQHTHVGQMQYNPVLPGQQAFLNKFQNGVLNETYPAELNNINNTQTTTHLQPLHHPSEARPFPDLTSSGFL
# How it was run: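 Cells carrying a stably or transiently transfected DRE-luciferase reporter, plated overnight at 37 C, then given agonist for 6, 16 or 24 h before lysis and luciferase read-out. Signal scaled between no ligand (minimum) and activating ligand alone, e.g. TCDD (maximum); EC50 = concentration giving half-maximal luciferase activity.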
# AHR [2] = biological target: T2, AHR (Mus musculus, UniProt P30561); test: P450 CYP1A1 Luciferase Assay, Hepa1.6 (agonist); type: cell-based, murine; settings: Hepa1.6, Table 2
# T2 sequence (P30561 1-848 F348L/P471L): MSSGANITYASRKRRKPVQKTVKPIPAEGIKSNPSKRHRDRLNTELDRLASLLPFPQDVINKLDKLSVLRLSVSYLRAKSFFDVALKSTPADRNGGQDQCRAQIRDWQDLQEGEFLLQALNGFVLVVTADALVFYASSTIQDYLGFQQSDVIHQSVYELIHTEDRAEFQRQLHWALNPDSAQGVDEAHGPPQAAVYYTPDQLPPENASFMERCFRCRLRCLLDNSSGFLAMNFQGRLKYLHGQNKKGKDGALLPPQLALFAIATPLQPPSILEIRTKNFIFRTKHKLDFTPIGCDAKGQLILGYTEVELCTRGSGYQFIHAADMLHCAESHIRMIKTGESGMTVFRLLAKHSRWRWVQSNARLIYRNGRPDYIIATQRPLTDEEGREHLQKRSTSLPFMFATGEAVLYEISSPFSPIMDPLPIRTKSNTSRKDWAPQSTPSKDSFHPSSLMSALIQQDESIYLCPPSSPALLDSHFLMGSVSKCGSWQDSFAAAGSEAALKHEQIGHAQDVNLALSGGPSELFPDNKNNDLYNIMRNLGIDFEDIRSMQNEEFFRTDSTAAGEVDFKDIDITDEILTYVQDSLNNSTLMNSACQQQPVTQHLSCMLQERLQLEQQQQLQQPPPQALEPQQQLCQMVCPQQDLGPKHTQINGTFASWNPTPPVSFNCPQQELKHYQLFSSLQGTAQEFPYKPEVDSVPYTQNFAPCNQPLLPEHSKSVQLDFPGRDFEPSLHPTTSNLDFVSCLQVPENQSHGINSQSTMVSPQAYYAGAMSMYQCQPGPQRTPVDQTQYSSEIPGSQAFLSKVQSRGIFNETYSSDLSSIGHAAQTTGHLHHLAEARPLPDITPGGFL
# How it was run: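 Murine Hepa1-6 (or other murine/human lines) treated with agonist for 6, 16 or 24 h, then lysed and incubated with luminogenic CYP1A1 substrate (e.g. Luciferin-CEE). Luminescence normalised between no-ligand minimum and reference AHR ligand maximum; EC50 is concentration giving half-maximal activation.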
Compound,EC50 (AHR [1]),EC50 (AHR [2])
FC(F)(F)c1cccc(Nc2nc(-c3cccc(Cl)c3)cs2)c1 [Compound P-2],< 10 nM,100 to 1000 nM
Nc1cccc(-c2csc(Nc3cccc(C(F)(F)F)c3)n2)c1 [I-10],< 10 nM,100 to 1000 nM

# From US12030876B2, “Aryl hydrocarbon receptor (AHR) agonists and uses thereof” (Ikena Oncology, Inc., priority 2019, dated 2024)
